Patent US10046022B2, “Synthetic peptide that increases radiosensitivity of tumor cells and use of same” (TOAGOSEI CO., LTD., priority 2015, dated 2018)
Peptide text beside a SMILES is read from it.

System: HeLaS3 cells
Test: Radiosensitizing activity: cell survival rate (Cell Counting Kit-8, WST-8) of HeLaS3 cells after peptide and X-ray irradiation
Assay type: cell-based, human
Conditions: peptide 50 μM, X-ray dose 0 Gy, compared with 0 μM peptide
Method: Radiosensitizing activity of the radiosensitizing synthetic peptide (Sample 1) obtained in Example 1 was evaluated by measuring cell survival rates during culturing after having irradiated test cells supplied with the radiosensitizing synthetic peptide with radiation (here, X-rays).
Human carcinoma-derived cells (HeLaS3 cells) and cells derived from normal human tissue (CCD-1079Sk cells) were used for the test cells. […] Details of the evaluation test are as indicated below.
First, a cultured cell line derived from human cervical cancer in the form of HeLaS3 cells (ATCC™ CCL2.2) were prepared for use as test cells derived from a human tumor. […]
Next, at the point 48 hours had elapsed following X-ray irradiation, the viability of the test cells (the number of viable cells) was measured using a commercially available chromogenic assay kit (Cell Counting Kit-8, Dojindo Molecular Technologies, Inc.). Namely, the number of viable cells was measured by colorimetry by quantifying the amount of water-soluble formazan in the medium by measuring using absorption spectrophotometry (measuring wavelength: 450 nm, reference wavelength: 650 nm) based on the principle that the tetrazolium salt in the reagent is reduced by enzyme activity of viable cells resulting in the formation of water-soluble formazan. […]

N=C(N)NCCC[C@H](NC(=O)[C@H](CCCNC(=N)N)NC(=O)[C@H](CO)NC(=O)[C@H](CCCCN)NC(=O)[C@H](CO)NC(=O)[C@H](CCCCN)NC(=O)[C@@H](N)CS)C(=O)N[C@@H](CO)C(=O)N[C@@H](CS)C(=O)O [Sample 1, CKSKSRRSC] (H-CKSKSRRSC-OH)
cell survivability, Test Group 1 in comparison with Test Group 2 (cytotoxicity attributable to the peptide): slightly lower
